Experiments:
Male Sprague-Dawley rats [1] = settings: rat, in vivo
Male Sprague-Dawley rats [2] = settings: rat, in vivo; remark: listed apart in the source

| Substance | ED50 in phase II (Male Sprague-Dawley rats [1]) [µg] | analgesic doses in the formalin test (Male Sprague-Dawley rats [1]) [µg] | effect on phase I flinches (Male Sprague-Dawley rats [1]) | effect on phase II flinches (Male Sprague-Dawley rats [1]) | potency in phase II (tonic pain) versus phase I (acute pain) (Male Sprague-Dawley rats [1]) | overt signs of toxicity (Male Sprague-Dawley rats [2]) | dose required to induce analgesic effects in both acute and tonic pain portions (Male Sprague-Dawley rats [1]) | effect of the single agent alone (Male Sprague-Dawley rats [1]) | rats showing signs of incoordination (Male Sprague-Dawley rats [2]) |
| --- | --- | --- | --- | --- | --- | --- | --- | --- | --- |
| Gly-Glu-Gla-Gla-Leu-Gln-Gla-Asn-Gln-Gla-Leu-Ile-Arg-Gla-Lys-Ser-Asn-NH2 [Conantokin G] | 0.15 | 0.05 to 1 | without significantly decreasing | nearly abolished | very potent | no overt signs of toxicity |  |  |  |
| Gly-Glu-Gla-Gla-Val-Ala-Lys-Met-Ala-Ala-Glu-Leu-Ala-Arg-Glu-Asn-Ile-Ala-Lys-Gly-Cys-Lys-Val-Asn-Cys-Tyr-Pro [Conantokin R] |  |  |  |  |  |  | more than 3.3 μg | no effect | One of six rats |
